# ± gives the standard deviation of the averaged measurements.
# How the values were obtained:
# [1] = compound: CCc1cc(Nc2nccc(-c3c(-c4ccc(OC)c(C(=O)Nc5c(F)cccc5F)c4)nc4ccccn34)n2)c(OC)cc1N1CCC(N2CCN(S(C)(=O)=O)CC2)CC1; assay: surviving fraction relative to DMSO-only wells; higher = less growth inhibition; conditions: exposure time: 5 days
# How it was run: (§1)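 Viability values are CellTiter-Glo luminescence readings, given as surviving fraction against the median of DMSO-only wells. The readings were taken after 10 minutes at room temperature, following five days of continuous exposure to inhibitors at 0.5, 1, 5, 10, 50, 100, 500 and 1000 nM that began 24 hours after log-phase tumour cell lines were seeded at 250–500 cells per well in 384-well plates. Every line was screened three times and kept only if replicate Pearson r >0.7 and median Z' >0.3.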
# [2] = compound: C=CCn1c(=O)c2cnc(Nc3ccc(N4CCN(C)CC4)cc3)nc2n1-c1cccc(C(C)(C)O)n1 [MK-1775]; assay: as above; conditions: exposure time: 5 days
# How it was run: as §1
Test System,surviving fraction ([1]; 0.5 nM),surviving fraction ([1]; 1 nM),surviving fraction ([1]; 5 nM),surviving fraction ([1]; 10 nM),surviving fraction ([1]; 50 nM),surviving fraction ([1]; 100 nM),surviving fraction ([1]; 500 nM),surviving fraction ([1]; 1000 nM),surviving fraction ([2]; 0.5 nM),surviving fraction ([2]; 1 nM),surviving fraction ([2]; 5 nM),surviving fraction ([2]; 10 nM),surviving fraction ([2]; 50 nM),surviving fraction ([2]; 100 nM),surviving fraction ([2]; 500 nM),surviving fraction ([2]; 1000 nM)
SNU475 LIVER,0.88 ± 0.066,0.966 ± 0.042,0.982 ± 0.024,0.976 ± 0.062,0.982 ± 0.025,0.956 ± 0.023,0.957 ± 0.054,0.875 ± 0.061,1.05 ± 0.06,1.04 ± 0.032,1.04 ± 0.024,0.9893 ± 0.0081,0.941 ± 0.035,0.884 ± 0.054,0.58 ± 0.031,0.345 ± 0.033
MFM223 BREAST,1.14 ± 0.05,1.15 ± 0.036,1.1 ± 0.08,1.15 ± 0.027,1.15 ± 0.012,1.21 ± 0.06,1.19 ± 0.033,1.05 ± 0.079,1.16 ± 0.057,1.14 ± 0.04,1.06 ± 0.067,1.14 ± 0.036,0.958 ± 0.045,0.545 ± 0.05,0.161 ± 0.0064,0.192 ± 0.02
MDAMB453 BREAST,1.02 ± 0.037,1.09 ± 0.12,1.14 ± 0.043,1.08 ± 0.054,1.12 ± 0.029,1.16 ± 0.031,1.02 ± 0.061,1.07 ± 0.086,1.09 ± 0.021,1.07 ± 0.034,1.13 ± 0.048,1.06 ± 0.052,1.14 ± 0.076,0.959 ± 0.1,0.214 ± 0.041,0.161 ± 0.021
JIMT1 BREAST,0.977 ± 0.04,1.01 ± 0.014,1.01 ± 0.011,1.02 ± 0.017,0.992 ± 0.032,1.04 ± 0.027,1 ± 0.031,0.986 ± 0.032,1.02 ± 0.021,0.987 ± 0.016,0.989 ± 0.01,0.991 ± 0.012,0.4405 ± 0.0039,0.227 ± 0.0077,0.0768 ± 0.0097,0.0532 ± 0.0013
MHM BONE,0.97 ± 0.021,0.974 ± 0.032,1.03 ± 0.011,0.998 ± 0.011,1.027 ± 0.0053,1 ± 0.03,0.982 ± 0.055,0.975 ± 0.029,0.981 ± 0.02,0.9753 ± 0.0067,1.04 ± 0.015,1.01 ± 0.033,1.02 ± 0.025,1.03 ± 0.025,0.638 ± 0.013,0.5597 ± 0.00058
HOSMNG BONE,0.956 ± 0.057,0.9987 ± 0.0055,0.989 ± 0.024,1.02 ± 0.086,1 ± 0.051,1.05 ± 0.087,1.05 ± 0.061,1.05 ± 0.057,1.04 ± 0.027,0.978 ± 0.061,0.935 ± 0.091,0.977 ± 0.11,1.01 ± 0.072,1.07 ± 0.063,0.143 ± 0.013,0.059 ± 0.0076
BT20 BREAST,1.06 ± 0.11,1.01 ± 0.086,1.09 ± 0.018,1.13 ± 0.14,0.932 ± 0.068,0.941 ± 0.036,0.825 ± 0.074,0.707 ± 0.029,1.12 ± 0.23,1.05 ± 0.19,1.06 ± 0.17,1.04 ± 0.21,1.09 ± 0.3,0.972 ± 0.21,0.162 ± 0.02,0.0827 ± 0.021
CAL72 BONE,1.06 ± 0.033,1.02 ± 0.026,1.03 ± 0.017,1.05 ± 0.025,1.08 ± 0.035,1.12 ± 0.032,1.13 ± 0.029,1.13 ± 0.033,1.06 ± 0.019,1.08 ± 0.041,1.07 ± 0.047,1.05 ± 0.023,1.11 ± 0.041,0.959 ± 0.018,0.123 ± 0.0076,0.109 ± 0.0067
VP229 BREAST,1.13 ± 0.059,1.08 ± 0.033,1.24 ± 0.11,1.17 ± 0.063,1.09 ± 0.13,1.09 ± 0.052,1.18 ± 0.17,0.875 ± 0.12,1.13 ± 0.14,1.01 ± 0.044,1.01 ± 0.056,1.07 ± 0.063,1.02 ± 0.034,0.754 ± 0.093,0.41 ± 0.056,0.261 ± 0.013
CADOES1 SOFT TISSUE,0.983 ± 0.048,0.983 ± 0.065,0.892 ± 0.12,0.885 ± 0.04,0.87 ± 0.1,1.05 ± 0.12,1.06 ± 0.12,1.08 ± 0.042,0.978 ± 0.014,0.929 ± 0.11,0.95 ± 0.036,0.887 ± 0.049,0.92 ± 0.094,0.832 ± 0.065,0.444 ± 0.034,0.218 ± 0.017
ZR751 BREAST,0.886 ± 0.14,0.98 ± 0.062,0.876 ± 0.11,0.935 ± 0.1,0.87 ± 0.07,0.895 ± 0.12,0.928 ± 0.094,0.954 ± 0.093,1.18 ± 0.14,1 ± 0.16,0.999 ± 0.19,1.04 ± 0.15,1.01 ± 0.16,1.04 ± 0.17,0.733 ± 0.1,0.622 ± 0.086
HCC1954 BREAST,0.996 ± 0.012,0.821 ± 0.02,0.904 ± 0.12,1.1 ± 0.052,0.982 ± 0.06,1 ± 0.1,0.913 ± 0.11,0.638 ± 0.068,0.762 ± 0.1,0.775 ± 0.012,1.08 ± 0.13,0.8722 ± 0.0025,0.719 ± 0.017,0.625 ± 0.0078,0.203 ± 0.013,0.102 ± 0.0042
CAL120 BREAST,0.944 ± 0.013,0.9663 ± 0.0055,0.968 ± 0.013,0.976 ± 0.032,0.976 ± 0.032,0.977 ± 0.024,0.944 ± 0.031,0.945 ± 0.021,0.9598 ± 0.0037,0.944 ± 0.011,0.985 ± 0.026,0.9663 ± 0.0029,0.902 ± 0.016,0.783 ± 0.027,0.2 ± 0.015,0.12 ± 0.018
SG28 HEADNECK,1.01 ± 0.085,1.09 ± 0.099,1.04 ± 0.099,1.07 ± 0.082,1.1 ± 0.1,1.04 ± 0.041,1.22 ± 0.07,1.21 ± 0.061,0.987 ± 0.18,1.11 ± 0.066,1.14 ± 0.12,1.04 ± 0.046,0.698 ± 0.0084,0.549 ± 0.032,0.441 ± 0.034,0.558 ± 0.11
SG31 HEADNECK,0.923 ± 0.036,1.08 ± 0.23,1.04 ± 0.2,0.903 ± 0.099,1.04 ± 0.14,1.14 ± 0.2,1.08 ± 0.26,1.1 ± 0.086,1.15 ± 0.19,1.03 ± 0.1,0.968 ± 0.097,0.977 ± 0.12,0.979 ± 0.14,0.789 ± 0.1,0.623 ± 0.074,0.649 ± 0.048
OSHN BONE,1.02 ± 0.018,1.04 ± 0.036,1.03 ± 0.038,1.06 ± 0.034,1.02 ± 0.033,1.05 ± 0.04,1.01 ± 0.023,1.04 ± 0.048,1.06 ± 0.03,1.06 ± 0.026,1.08 ± 0.04,1.05 ± 0.039,1.08 ± 0.04,1.06 ± 0.046,0.143 ± 0.016,0.0503 ± 0.0025
SCC36 HEADNECK,0.967 ± 0.035,1.04 ± 0.096,1.11 ± 0.091,1.1 ± 0.072,1.07 ± 0.027,1.09 ± 0.078,0.887 ± 0.03,0.791 ± 0.024,1.05 ± 0.066,1.08 ± 0.12,1.18 ± 0.065,0.995 ± 0.053,0.906 ± 0.035,0.739 ± 0.037,0.323 ± 0.029,0.228 ± 0.021
CAL51 BREAST,0.995 ± 0.06,1 ± 0.025,0.998 ± 0.029,1.03 ± 0.068,1.02 ± 0.017,1.04 ± 0.05,1.03 ± 0.043,1.03 ± 0.042,0.966 ± 0.047,0.9993 ± 0.0062,1.01 ± 0.016,0.994 ± 0.044,0.853 ± 0.012,0.48 ± 0.031,0.0318 ± 0.0013,0.0317 ± 0.0026
HOS BONE,1.008 ± 0.004,1.028 ± 0.0032,1.06 ± 0.018,1.05 ± 0.028,1.06 ± 0.026,1.047 ± 0.0083,0.956 ± 0.017,0.89 ± 0.014,1.02 ± 0.017,1.02 ± 0.011,1.05 ± 0.039,1.03 ± 0.027,1.027 ± 0.0056,0.98 ± 0.028,0.15 ± 0.019,0.065 ± 0.0027

# Source: the supplement of paper PMC6045584
